According to US20080132539A1, “Hydroxamic Acid Derivative And Age Generation Inhibitor Containing The Derivative” (priority 2003, published 2008):

Key:
Assay type in all cases: biochemical
[1] = test system: Maillard reaction (lysozyme / fructose, dimer formation); assay: Maillard reaction-inhibiting effects (lysozyme dimer formation with fructose, SDS-PAGE densitometry); settings: 10 mg/mL lysozyme, 200 mM fructose, pH 7.4, 37° C., 4 days, dimer formation inhibition rate
Description: This Example examined Maillard reaction-inhibiting effects using, as test compounds, the compounds produced in the above-described Examples and the commercially available substances arginine hydroxamate (Compound No. 111), tyrosine hydroxamate (Compound No. 112), and tryptophan hydroxamate (Compound No. 113). More specifically, 10 mg/mL lysozyme, 200 mM fructose, and each of the above-described test compounds dissolved in a 0.4 mM sodium phosphate buffer (pH 7.4) so as to provide a concentrations of 0.1, 0.3, 1, or 3 mM were incubated at 37° C. for 4 days. After the incubation, the samples were subjected to SDS-PAGE, stained with Coomassie Brilliant Blue R-250, and quantitated for the formed dimmers using a densitometer. The Maillard reaction-inhibiting activity was defined as the dimmer formation inhibition rate of a test compound calculated on the basis that the amount of dimmer is 100% in the absence of the test compound, using, as blank, the amount of dimer in the absence of fructose and the test compound.

[2] = Methyl glyoxal-trapping activity test (DMB derivatisation, HPLC); settings: 0.02 mM methyl glyoxal, 0.2 mM test compound, PBS, 37° C., 30 minutes
Description: (§1) In 0.2 mL of PBS were incubated 0.02 mM of methyl glyoxal and 0.2 mM of test compound at 37° C. for 30 minutes. Subsequently, a volume of 5 mM DMB (1,2-diamino-4,5-methylenedioxy benzene) solution equivalent to 10 μL of the incubation sample was added, followed by further incubation at 4° C. for 7 hours to react the remaining methyl glyoxal with DMB. After the end of reaction, a 0.4 M phosphate buffer solution (pH 7.2) was added for neutralization, followed by quantitating the modified product of methyl glyoxal-DMB using HPLC.
(§2) HPLC having a YMC-Pack Pro C18 column (φ4.6 mm×150 mm) and employing 5 mM sodium phosphate buffer (pH 7.4)-25% acetonitrile as a mobile phase was used at a flow rate of 0.7 mL/min to determine fluorescence strength at Ex352 nm and Em385 nm.
The proportion of methyl glyoxal trapped by the test compound was calculated as % trapping activity, based on the quantitative value of the total modified product of methyl glyoxal-DMB in the absence of the test compound.

[3] = Glyoxal-trapping activity test (DMB derivatisation, HPLC); settings: 0.02 mM glyoxal, 0.2 mM test compound, PBS, 37° C., 30 minutes
Description: as §1, with “of” for “of methyl”
as §2
The proportion of glyoxal trapped by the test compound was calculated as % trapping activity, based on the quantitative value of the total modified product of glyoxal-DMB in the absence of the test compound.

[4] = test compound concentration 0.1 mM
[5] = test compound concentration 0.3 mM
[6] = test compound concentration 1 mM
[7] = test compound concentration 3 mM

N#Cc1ccc(Cn2cc(CC(N)C(=O)NO)c3ccccc32)cc1 (racemic) [Compound No. 107, (RS)-2-amino-3-[1-(4-cyanobenzyl)-1H-indol-3-yl]-N-hydroxypropionamide]
Maillard reaction-inhibiting activity (%) [1, 4]: 101%
Maillard reaction-inhibiting activity (%) [1, 5]: 100%
Maillard reaction-inhibiting activity (%) [1, 6]: 101%
Maillard reaction-inhibiting activity (%) [1, 7]: 101%
Methyl-glyoxal-trapping activity (% trapping) [2]: 87.3 ± 0.5 % trapping
Glyoxal-trapping activity (% trapping) [3]: 69.8 ± 1.2 % trapping

N=C(N)NN [Aminoguanidine, reference compound]
Maillard reaction-inhibiting activity (%) [1, 4]: −3%
Maillard reaction-inhibiting activity (%) [1, 5]: −5%
Maillard reaction-inhibiting activity (%) [1, 6]: 7%
Maillard reaction-inhibiting activity (%) [1, 7]: 26%
Methyl-glyoxal-trapping activity (% trapping) [2]: 52.8 ± 1.5 % trapping
Glyoxal-trapping activity (% trapping) [3]: 32.9 ± 3.8 % trapping

CCCn1c(CC[C@H](N)C(=O)NO)nc2cc(Cl)c(Cl)cc21 [Compound No. 95, (S)-2-amino-4-(5,6-dichloro-1-propyl-1H-benzimidazol-2-yl)-N-hydroxybutyramide]
Maillard reaction-inhibiting activity (%) [1, 4]: 102%
Maillard reaction-inhibiting activity (%) [1, 5]: 106%
Maillard reaction-inhibiting activity (%) [1, 6]: 107%
Maillard reaction-inhibiting activity (%) [1, 7]: 108%
Methyl-glyoxal-trapping activity (% trapping) [2]: 84.2 ± 0.6 % trapping
Glyoxal-trapping activity (% trapping) [3]: 65.7 ± 2.2 % trapping

N[C@@H](Cc1cn(Cc2c(F)c(F)c(F)c(F)c2F)c2ccccc12)C(=O)NO [Compound No. 104, (S)-2-amino-3-(1-pentafluorophenylmethyl-1H-indol-3-yl)-N-hydroxypropionamide]
Maillard reaction-inhibiting activity (%) [1, 4]: 95%
Maillard reaction-inhibiting activity (%) [1, 5]: 97%
Maillard reaction-inhibiting activity (%) [1, 6]: 94%
Maillard reaction-inhibiting activity (%) [1, 7]: 100%
Methyl-glyoxal-trapping activity (% trapping) [2]: 81.9 ± 2.1 % trapping
Glyoxal-trapping activity (% trapping) [3]: 66.5 ± 2.4 % trapping

NC(N)=NCCC[C@H](N)C(=O)NO [Compound No. 111, arginine hydroxamate]
Maillard reaction-inhibiting activity (%) [1, 4]: 10%
Maillard reaction-inhibiting activity (%) [1, 5]: 17%
Maillard reaction-inhibiting activity (%) [1, 6]: 75%
Maillard reaction-inhibiting activity (%) [1, 7]: 98%
Methyl-glyoxal-trapping activity (% trapping) [2]: 77.6 ± 0.5 % trapping
Glyoxal-trapping activity (% trapping) [3]: 75.2 ± 1.3 % trapping

N[C@@H](Cc1ccc(O)cc1)C(=O)NO [Compound No. 112, tyrosine hydroxamate]
Maillard reaction-inhibiting activity (%) [1, 4]: 24%
Maillard reaction-inhibiting activity (%) [1, 5]: 61%
Maillard reaction-inhibiting activity (%) [1, 6]: 99%
Maillard reaction-inhibiting activity (%) [1, 7]: 101%
Methyl-glyoxal-trapping activity (% trapping) [2]: 74.4 ± 2.7 % trapping
Glyoxal-trapping activity (% trapping) [3]: 67.8 ± 1.2 % trapping

NC(Cc1c[nH]c2ccccc12)C(=O)NO (stereo not drawn) [Compound No. 113, tryptophan hydroxamate]
Maillard reaction-inhibiting activity (%) [1, 4]: 42%
Maillard reaction-inhibiting activity (%) [1, 5]: 76%
Maillard reaction-inhibiting activity (%) [1, 6]: 99%
Maillard reaction-inhibiting activity (%) [1, 7]: 102%
Methyl-glyoxal-trapping activity (% trapping) [2]: 96.2 ± 0.7 % trapping
Glyoxal-trapping activity (% trapping) [3]: 75.9 ± 0.9 % trapping
